Measurements taken from patent US20220160488A1, “FUNCTIONALIZED PROSTHETIC INTERFACES FOR THE PREVENTION AND TREATMENT OF DENTAL CONDITIONS” (OPTIMED TECHNOLOGY, INC., priority 2019, published 2022).

System: candida cultures
Experiment: Heat-treated AmB placed on candida cultures, cleared zone
Type: cell-based, Candida albicans
Details: heat-treated at various temperatures, examined after 24 h; n=2
Experimental: FIG. 4 illustrates Candida albicans biomass assay: The antifungal properties of 3D printed PCL-PMMA was examined in a biomass assay a. To assess antifungal effects, 3D printed 1, 5 and 10 layered sample were incubated with C. albicans for 48 h and dry weight of their biofilm biomass was assessed. n=3, *p<0.05, T test. b. Electron microscopy of 1 (left), 5 (middle) and 10 (right) layered AmB containing PCL microspheres incorporated PMMA disc. c. AmB was heat-treated at various temperatures and placed on candida cultures and examined after 24 h for efficacy (left panel). Digital images were captured and the cleared zone was quantitated (right panel) n=2, *p<0.05, T test.

C[C@@H]1[C@H](O)[C@@H](C)/C=C/C=C/C=C/C=C/C=C/C=C/C=C/[C@H](O[C@@H]2O[C@H](C)[C@@H](O)[C@H](N)[C@@H]2O)C[C@@H]2O[C@](O)(C[C@@H](O)C[C@@H](O)[C@H](O)CC[C@@H](O)C[C@@H](O)CC(=O)O[C@H]1C)C[C@H](O)[C@H]2C(=O)O [AmB, Amphotericin B]
anti-fungal effects after direct heat treatment: reduced anti-fungal effects
